The subject of this experiment is M. tuberculosis H37Rv growth inhibition, 7H9 media. The experiment in a line: M. tuberculosis growth inhibition, HTS (AID 449762).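 On all read-outs here: bacterial growth assessed after seven days of incubation.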 Particulars: for IC90: measured here: IC90 growth inhibition.

The structures appear in SMILES notation. Results filed as inconclusive are left out. Some results are limits rather than exact numbers.

Regarding `O=C(N/N=C\C=C\c1ccc([N+](=O)[O-])o1)c1cccs1`, the half-inhibitory concentration (IC50) is 0.59 µM and the IC90 was 0.92 µM.

Turning to `Cc1cc(C2N=C(N)Nc3nc4ccccc4n32)c(C)n1-c1ccccc1Cl` (centres undefined), the IC50 was 12.1 µM and the concentration for an effect of 90% (IC90) came to 16.6 µM.

In the case of `Cc1onc(-c2c(F)cccc2Cl)c1C(=O)O/N=C(\N)c1ccc([N+](=O)[O-])o1`, the concentration for half-maximal inhibition (IC50) was 5.3 µM and the 90% effect concentration (IC90) came out at 11 µM.

Consider `C/C(=N\Nc1ccc([N+](=O)[O-])cc1)c1cccc(N)c1`, for which the concentration for half-maximal inhibition (IC50) was 62.9 µM and the IC90 worked out at 88.3 µM.

Regarding `CCc1ccc2oc(-c3cc(N=Cc4cccc(OC)c4O)ccc3O)nc2c1`, the IC50 is 35.8 µM and the concentration for an effect of 90% (IC90) stood at 69.3 µM.

As for `Cc1nc(NC(=O)c2ccccc2)sc1C1(C)CC(c2ccc(OC(F)(F)F)cc2)=NO1` (centres undefined), the IC50 is 24.6 µM and the IC90 was 41.1 µM.

Consider `C/C(=N\NC(=O)COc1ccc(C)cc1Br)c1cc([N+](=O)[O-])cs1`, for which the IC50 is 4.07 µM and the IC90 was determined as 34.1 µM.

In the case of `COc1cccc(/C=N/Nc2nc(Nc3ccccc3)nc(-n3nc(C)cc3C)n2)c1O`, the IC50 is below 0.2 µM and the IC90 was below 0.2 µM.

As to `C=C1c2c(Cl)ccc(O)c2C(O)=C2C(=O)[C@]3(O)C(O)=C(C(N)=O)C(=O)[C@@H](N(C)C)[C@@H]3[C@@H](O)C12` (some centres undefined), the IC50 was 1.06 µM and the 90% effect concentration (IC90) was found to be 4.88 µM.

Turning to `Cc1[nH]c2ccccc2c1C(=O)COC(=O)c1ccc([N+](=O)[O-])s1`, the 50% inhibitory concentration (IC50) is 0.59 µM and the IC90 was 2 µM.

For the molecule `CCOc1ccc(-c2csc(/C(C#N)=C\c3ccc(O)c([N+](=O)[O-])c3)n2)cc1`, the concentration for half-maximal inhibition (IC50) is 11.1 µM and the IC90 is above 100 µM.

For the molecule `COc1ccc(NC(=O)CSC2=C(C#N)C(c3ccco3)C(C(=O)Nc3nc4ccccc4s3)=C(C)N2)cc1` (centres undefined), the IC50 is 5.57 µM and the concentration for an effect of 90% (IC90) is 7.26 µM.

As to `COc1cc(C)ccc1OCCOc1c(C)cc(Cl)cc1Cl`, the IC50 was 21.6 µM and the IC90 is above 100 µM.

`CCOC(=O)N1CCN(C(=O)CSc2nnc(-c3ccc(Cl)s3)o2)CC1`: the 50% inhibitory concentration (IC50) was 13.1 µM and the IC90 was 34.1 µM.

Regarding `CC(C)(Oc1ccc(Cl)cc1)C(=O)OCC(=O)N1CCN(c2ccccc2)CC1`, the 50% inhibitory concentration (IC50) was 30.5 µM and the IC90 came out at 98.2 µM.

On to `c1ccc(-c2n[nH]c(-c3ccccn3)n2)cc1`, for which the IC50 is 12.6 µM and the IC90 stood at 19.3 µM.

`CCC(=O)NC(=S)Nc1ccc(NC(=O)COc2ccc(Cl)cc2Cl)cc1`: the half-maximal inhibitory concentration (IC50) was 88.1 µM and the IC90 is above 100 µM.

As to `Cc1ccc(C(=O)Nc2ccc3c4c(cccc24)CC3)cc1[N+](=O)[O-]`, the IC50 is below 0.2 µM and the concentration for an effect of 90% (IC90) is above 100 µM.

Regarding `Cc1nc(N2CCC(C)CC2)c2oc3ccccc3c2n1`, the 50% inhibitory concentration (IC50) is 24 µM and the IC90 turned out to be 45.4 µM.

In the case of `CCOC(=O)c1c(NC(=O)C(NCCN(C)C)c2ccccc2)sc2c1CCCC2` (centres undefined), the IC50 is 4.75 µM and the 90% effect concentration (IC90) stood at 10.1 µM.

`O=C(Oc1ccccc1-c1nnco1)c1ccc(Cl)cc1`: the IC50 was 10.3 µM and the 90% effect concentration (IC90) is 44.7 µM.

In the case of `CCOC(=O)C1CCN(c2nc3cc(OC)ccc3cc2C#N)CC1`, the IC50 was 52.7 µM and the concentration for an effect of 90% (IC90) is above 100 µM.

For `CCCCNC(=S)Nc1ccc2cn[nH]c2c1`, the IC50 was 11.2 µM and the IC90 was 21.3 µM.

In the case of `O=C(OCc1ccccc1F)c1cnc(Cl)c(Cl)c1`, the half-inhibitory concentration (IC50) was 13.1 µM and the IC90 is 49.8 µM.

`Cc1ccc(NC(=O)CNCc2cccs2)cc1Br`: the half-inhibitory concentration (IC50) was 99.6 µM and the IC90 was above 100 µM.

`CN1CCN(CC/C=C2/c3ccccc3Sc3ccc(S(=O)(=O)N(C)C)cc32)CC1` had an IC90 above 100 µM.

Regarding `CCn1c(NC(=O)c2nn(C)cc2Br)nc2ccccc21`, the half-inhibitory concentration (IC50) is 4.39 µM and the IC90 worked out at 12.7 µM.

For `Cc1cc(C)n(-c2nc(NCCN(C)C)c3c4c(sc3n2)CCCC4)n1`, the IC50 was 14.6 µM and the IC90 was found to be 18.6 µM.

Consider `COC(=O)COc1ccc(-c2nn(C)c(=O)c3ccccc23)cc1`, for which the IC50 is 1.77 µM and the IC90 was 27.5 µM.

For the molecule `COc1cc2cnc(-c3ccccc3)c(-c3ccc(C(F)(F)F)cc3)c2cc1OC`, the IC50 is 44 µM and the IC90 is above 50 µM.

What is called IC50 is the concentration at which inhibition is half-maximal. For orientation: IC90 means the concentration at which the effect reaches the 90% level. A higher IC90 goes with weaker potency.

The record behind these values is PubChem BioAssay AID449762 (Southern Research Specialized Biocontainment Screening …, 2010).
